Data from PubChem BioAssay (NCI).
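Exposure lasted 48 hours, with cells grown in 96-well plates and compounds tested at five concentrations. TGI: concentration producing complete growth inhibition.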

Experiments:
Test in all cases: growth of human tumour cells (NCI), 48 h
HOP-62 NSCLC = tested on: HOP-62 NSCLC
KM12 colon = tested on: KM12 colon
MOLT-4 leukemia = tested on: MOLT-4 leukemia
CAKI-1 renal = tested on: CAKI-1 renal
ACHN renal = tested on: ACHN renal
BT-549 breast = tested on: BT-549 breast
TK-10 renal = tested on: TK-10 renal
NCI-H522 lung = tested on: NCI-H522 lung
HT29 colon = tested on: HT29 colon
MALME-3M melanoma = tested on: MALME-3M melanoma
SK-MEL-2 melanoma = tested on: SK-MEL-2 melanoma
COLO 205 colon = tested on: COLO 205 colon
SN12C renal = tested on: SN12C renal
SNB-19 CNS = tested on: SNB-19 CNS
NCI-H460 lung = tested on: NCI-H460 lung
SF-268 CNS = tested on: SF-268 CNS
RPMI-8226 leukemia = tested on: RPMI-8226 leukemia
SK-MEL-28 melanoma = tested on: SK-MEL-28 melanoma
K-562 leukemia = tested on: K-562 leukemia
PC-3 prostate = tested on: PC-3 prostate
IGROV1 ovarian = tested on: IGROV1 ovarian
A498 renal = tested on: A498 renal
SNB-75 CNS = tested on: SNB-75 CNS
SK-OV-3 ovarian = tested on: SK-OV-3 ovarian
NCI-H226 lung = tested on: NCI-H226 lung
MDA-MB-231 breast = tested on: MDA-MB-231 breast
UACC-257 melanoma = tested on: UACC-257 melanoma
HCC-2998 colon = tested on: HCC-2998 colon
HCT-116 colon = tested on: HCT-116 colon
HL-60(TB) leukemia = tested on: HL-60(TB) leukemia
DU-145 prostate = tested on: DU-145 prostate
UACC-62 melanoma = tested on: UACC-62 melanoma
A549 NSCLC = tested on: A549 NSCLC
NCI-H23 lung = tested on: NCI-H23 lung
LOX IMVI melanoma = tested on: LOX IMVI melanoma
MDA-N = tested on: MDA-N
HS 578T breast = tested on: HS 578T breast
786-0 renal = tested on: 786-0 renal
M14 melanoma = tested on: M14 melanoma
OVCAR-3 ovarian = tested on: OVCAR-3 ovarian
U251 CNS = tested on: U251 CNS
EKVX NSCLC = tested on: EKVX NSCLC
OVCAR-8 ovarian = tested on: OVCAR-8 ovarian
HOP-92 NSCLC = tested on: HOP-92 NSCLC
NCI/ADR-RES ovarian = tested on: NCI/ADR-RES ovarian
CCRF-CEM leukemia = tested on: CCRF-CEM leukemia
SF-539 CNS = tested on: SF-539 CNS
HCT-15 colon = tested on: HCT-15 colon
MCF7 breast = tested on: MCF7 breast
UO-31 renal = tested on: UO-31 renal
SF-295 CNS = tested on: SF-295 CNS
OVCAR-5 ovarian = tested on: OVCAR-5 ovarian
SK-MEL-5 melanoma = tested on: SK-MEL-5 melanoma
MDA-MB-435 = tested on: MDA-MB-435
SW-620 colon = tested on: SW-620 colon
RXF 393 renal = tested on: RXF 393 renal
OVCAR-4 ovarian = tested on: OVCAR-4 ovarian
SR leukemia = tested on: SR leukemia

CN(CC(=O)N1CC(CCl)c2ccc([N+](=O)[O-])cc21)CC(=O)N1CC(CCl)c2ccc([N+](=O)[O-])cc21 (configuration not stated) gave a TGI (HOP-62 NSCLC) greater than 100 µM, a TGI (KM12 colon) greater than 100 µM and a TGI (MOLT-4 leukemia) greater than 100 µM. The TGI (CAKI-1 renal) was greater than 100 µM, the TGI (ACHN renal) was greater than 100 µM and the TGI (BT-549 breast) was greater than 100 µM. For the same compound, the TGI (TK-10 renal) was greater than 100 µM, the TGI (NCI-H522 lung) was greater than 100 µM and the TGI (HT29 colon) was greater than 100 µM. It also gave a TGI (MALME-3M melanoma) greater than 100 µM, a TGI (SK-MEL-2 melanoma) greater than 100 µM and a TGI (COLO 205 colon) greater than 100 µM. It also gave a TGI (SN12C renal) greater than 100 µM, a TGI (SNB-19 CNS) greater than 100 µM and a TGI (NCI-H460 lung) greater than 100 µM. For the same compound, the TGI (SF-268 CNS) was greater than 100 µM, the TGI (RPMI-8226 leukemia) was greater than 100 µM and the TGI (SK-MEL-28 melanoma) was greater than 100 µM. For the same compound, the TGI (K-562 leukemia) was greater than 100 µM, the TGI (PC-3 prostate) was greater than 100 µM and the TGI (IGROV1 ovarian) was greater than 100 µM. For the same compound, the TGI (A498 renal) was greater than 100 µM, the TGI (SNB-75 CNS) was greater than 100 µM and the TGI (SK-OV-3 ovarian) was greater than 100 µM. It also gave a TGI (NCI-H226 lung) greater than 100 µM, a TGI (MDA-MB-231 breast) greater than 100 µM and a TGI (UACC-257 melanoma) greater than 100 µM. It also gave a TGI (HCC-2998 colon) greater than 100 µM, a TGI (HCT-116 colon) greater than 100 µM and a TGI (HL-60(TB) leukemia) greater than 100 µM. It also gave a TGI (DU-145 prostate) greater than 100 µM, a TGI (UACC-62 melanoma) greater than 100 µM and a TGI (A549 NSCLC) greater than 100 µM. The TGI (NCI-H23 lung) was greater than 100 µM, the TGI (LOX IMVI melanoma) was greater than 100 µM and the TGI (MDA-N) was greater than 100 µM. For the same compound, the TGI (HS 578T breast) was greater than 100 µM, the TGI (786-0 renal) was greater than 100 µM and the TGI (M14 melanoma) was greater than 100 µM. For the same compound, the TGI (OVCAR-3 ovarian) was greater than 100 µM, the TGI (U251 CNS) was greater than 100 µM and the TGI (EKVX NSCLC) was greater than 100 µM. The TGI (OVCAR-8 ovarian) was greater than 100 µM, the TGI (HOP-92 NSCLC) was greater than 100 µM and the TGI (NCI/ADR-RES ovarian) was greater than 100 µM. For the same compound, the TGI (CCRF-CEM leukemia) was greater than 100 µM, the TGI (SF-539 CNS) was greater than 100 µM and the TGI (HCT-15 colon) was greater than 100 µM. For the same compound, the TGI (MCF7 breast) was greater than 100 µM, the TGI (UO-31 renal) was greater than 100 µM and the TGI (SF-295 CNS) was greater than 100 µM. For the same compound, the TGI (OVCAR-5 ovarian) was greater than 100 µM, the TGI (SK-MEL-5 melanoma) was greater than 100 µM and the TGI (MDA-MB-435) was greater than 100 µM. It also gave a TGI (SW-620 colon) greater than 100 µM.

Compound O=C(Nc1ccccc1)OCCN=C1c2ccccc2C(Br)C(Br)c2ccccc21 (configuration not stated) has a TGI (HOP-62 NSCLC) of 19.9 µM, a TGI (KM12 colon) of 18.7 µM and a TGI (MOLT-4 leukemia) of 5.06 µM. For the same compound, the TGI (CAKI-1 renal) was 16.2 µM, the TGI (ACHN renal) was 20.6 µM and the TGI (TK-10 renal) was 18.5 µM. It also gave a TGI (NCI-H522 lung) of 8.41 µM, a TGI (HT29 colon) of 14.6 µM and a TGI (MALME-3M melanoma) of 16.3 µM. For the same compound, the TGI (SK-MEL-2 melanoma) was greater than 31.6 µM, the TGI (COLO 205 colon) was 13 µM and the TGI (SN12C renal) was 17.5 µM. The TGI (SNB-19 CNS) was 27 µM, the TGI (NCI-H460 lung) was 19.5 µM and the TGI (SF-268 CNS) was 15.6 µM. The TGI (RPMI-8226 leukemia) was 19.9 µM, the TGI (SK-MEL-28 melanoma) was 16.1 µM and the TGI (K-562 leukemia) was 7.03 µM. For the same compound, the TGI (PC-3 prostate) was greater than 31.6 µM, the TGI (IGROV1 ovarian) was 10.6 µM and the TGI (A498 renal) was 18.1 µM. For the same compound, the TGI (SNB-75 CNS) was 26.5 µM, the TGI (SK-OV-3 ovarian) was 22.5 µM and the TGI (NCI-H226 lung) was 19.2 µM. It also gave a TGI (MDA-MB-231 breast) of 20.6 µM, a TGI (UACC-257 melanoma) of 15.6 µM and a TGI (HCC-2998 colon) of 20.8 µM. For the same compound, the TGI (HCT-116 colon) was 13.3 µM, the TGI (HL-60(TB) leukemia) was 3.85 µM and the TGI (DU-145 prostate) was 16 µM. The TGI (UACC-62 melanoma) was 17.6 µM, the TGI (A549 NSCLC) was 25.4 µM and the TGI (NCI-H23 lung) was 25.9 µM. For the same compound, the TGI (LOX IMVI melanoma) was 13.4 µM, the TGI (MDA-N) was 17.1 µM and the TGI (HS 578T breast) was 22 µM. It also gave a TGI (786-0 renal) of 8.18 µM, a TGI (M14 melanoma) of 12.4 µM and a TGI (OVCAR-3 ovarian) of 15.8 µM. For the same compound, the TGI (U251 CNS) was 16.5 µM, the TGI (EKVX NSCLC) was 19.8 µM and the TGI (OVCAR-8 ovarian) was 13 µM. For the same compound, the TGI (HOP-92 NSCLC) was 16.1 µM, the TGI (NCI/ADR-RES ovarian) was 19.4 µM and the TGI (CCRF-CEM leukemia) was 5.3 µM. For the same compound, the TGI (SF-539 CNS) was 7.2 µM, the TGI (HCT-15 colon) was greater than 24.2 µM and the TGI (MCF7 breast) was greater than 31.6 µM. It also gave a TGI (RXF 393 renal) of 9.69 µM, a TGI (OVCAR-4 ovarian) of 21.9 µM and a TGI (UO-31 renal) of 3.61 µM. It also gave a TGI (SR leukemia) of 7.08 µM, a TGI (SF-295 CNS) greater than 31.6 µM and a TGI (OVCAR-5 ovarian) greater than 31.6 µM. For the same compound, the TGI (SK-MEL-5 melanoma) was 16.9 µM, the TGI (MDA-MB-435) was 17.1 µM and the TGI (SW-620 colon) was 16.3 µM.
